Source: the NIST ThermoML archive (doi:10.1016/j.jct.2005.09.004)
± gives the expanded uncertainty stated by the source.

Legend:
[1] = for surface tension liquid-gas: Drop volume; for mass density: 101.33 kPa, Liquid
[2] = refractive index (Na D-line) (dimensionless); conditions: 101.33 kPa, Liquid, Standard Abbe refractometry

surface tension liquid-gas ([1]; 283.15 K)	mass density ([1]; 283.15 K)	surface tension liquid-gas ([1]; 298.15 K)	mass density ([1]; 298.15 K)	surface tension liquid-gas ([1]; 313.15 K)	mass density ([1]; 313.15 K)	refractive index ([2]; 283.15 K)	refractive index ([2]; 298.15 K)	refractive index ([2]; 313.15 K)	Structure (SMILES)
35.09 ± 0.39 mN/m	1045.16 ± 0.14 kg/m3	33.23 ± 0.37 mN/m	1027.85 ± 0.12 kg/m3	31.23 ± 0.35 mN/m	1010.99 ± 0.11 kg/m3	1.42721 ± 0.00031	1.41992 ± 0.00031	1.41256 ± 0.00031	C1COCCO1 [1,4-dioxane]
26.28 ± 0.3 mN/m	787.97 ± 0.3 kg/m3	24.73 ± 0.28 mN/m	773.65 ± 0.32 kg/m3	22.93 ± 0.26 mN/m	759.59 ± 0.33 kg/m3	1.43182 ± 0.00031	1.42348 ± 0.00031	1.41498 ± 0.00031	C1CCCCC1 [cyclohexane]
24.14 ± 0.3 mN/m	754.85 ± 0.77 kg/m3	22.06 ± 0.28 mN/m	739.74 ± 0.79 kg/m3	19.76 ± 0.25 mN/m	724.71 ± 0.81 kg/m3	1.41197 ± 0.00037	1.40335 ± 0.00037	1.39451 ± 0.00037	C1CCCC1 [cyclopentane]
